Patent US7872030B2, “Use of 2-[5-(4-fluorophenyl)-3-pyridylmethylaminomethyl]-chromane and its physiologically acceptable salts” (Merck Patent GmbH, priority 2001, dated 2011)

Assays:
[1] = test system: rats after cardiac arrest; assay: Posthypoxic myoclonus in rats; settings: rat, in vivo
Experimental: A typical animal model for myoclonus is myoclonus induced by an acute hypoxic episode according to D. D. Truong et al., Mov. Dsiord., 1994; 9: 201-206). In this model of posthypoxic myoclonus, rats undergo a cardiac arrest for 8 minutes and are resuscitated thereafter. Myoclonic jerks occur spontaneously but can be provoked by auditory stimulation, too, worsening over the days following cardiac arrest.

[2] = test system: reserpinized rat or mouse; assay: Reserpinized rat or mouse (akinesia); type: in vivo; settings: 24 h after reserpine; for distance travelled and time active: activity meters
Experimental: A typical animal model is the reserpinized rat or mouse (e.g. […]. Neural Transm.-Park. Dis. Dement. Sect., 1994; 7: 133-142; M. Gossel et al., J. Neural Transm.-Park. Dis. Dement. Sect., 1995; 10: 27-39; N. R. Hughes et al., Mov. Disord., 1998; 13: 228-233). Reserpine is a potent depleter of monoamines and produces nearly complete akinesia in both species. Prominent 24 h after application, the distance travelled and the time active is nearly zero as measured in conventional activity meters.

[3] = test system: genetically dystonic hamsters; assay: Mutant dystonic hamster; settings: in vivo
Excerpt: A typical animal model is the mutant dystonic hamster according to A. Richter and […], Prog. Neurobiol. 1998; 54: 633-677. In this genetically dystonic hamsters, dystonic attacks are provoked by taking the animal from the home cage and placing it on a balance. The dystonic syndrome consists of a sequence of abnormal movements, and the severity of the single symptoms is rated by a scoring system.

dopamine D3 receptor = dopamine D3 receptor (Homo sapiens, UniProt P35462)
[4] = test system: rats challenged with haloperidol; assay: Neuroleptics-induced muscle rigidity in rats; settings: rat, in vivo
Excerpt: A typical animal model is neuroleptics-induced muscle rigidity in rats according to S. Wolfarth et al, Arch. Pharmacol. 1992; 345: 209-212. Rats are challenged with the conventional neuroleptic drug haloperidol which enhances muscle tone. Muscle tone is electromechanically measured as the resistence to passive flexion and extension of the hind limb.

[5] = test system: patients with Huntington's disease; assay: Trial in patients with Huntington's disease; type: in vivo, human; settings: add on, 2.5 to 20 mg b.i.d., vs placebo
Experimental: A typical trial to establish the effect of the compounds according to the invention on chorea, voluntary motor performance, and functional disability in patients with Huntington's disease encompasses 32 genetically diagnosed patients. […] The dose of blinded medication is titrated over a period of 3 weeks in a range from 2.5 to 20 mg b.i.d. Then the medication is held constant for 1 week. Assessments are performed in the week before and at the last day of the trial. Chorea is scored using the abnormal involuntary movement scale (AIMS, W. Guy, in: ECDEU assessment manual. Rockville Md.: US dept. of health, education and welfare, 1976: 534-537), the unified Huntington's disease rating scale (UHDRS, Huntington study group, 1996, Movement Disord, 11: 136-42), and judgement of video recordings. Voluntary motor performance is assessed using the UHDRS motor scale. Patients and their partners complete a questionnaire regarding functional disability.

dopamine D2 receptor = dopamine D2 receptor (Homo sapiens, UniProt P14416); assay: D2 antagonism; settings: under increased doses
Sequence of dopamine D2 receptor (P14416 whole entry, species assumed): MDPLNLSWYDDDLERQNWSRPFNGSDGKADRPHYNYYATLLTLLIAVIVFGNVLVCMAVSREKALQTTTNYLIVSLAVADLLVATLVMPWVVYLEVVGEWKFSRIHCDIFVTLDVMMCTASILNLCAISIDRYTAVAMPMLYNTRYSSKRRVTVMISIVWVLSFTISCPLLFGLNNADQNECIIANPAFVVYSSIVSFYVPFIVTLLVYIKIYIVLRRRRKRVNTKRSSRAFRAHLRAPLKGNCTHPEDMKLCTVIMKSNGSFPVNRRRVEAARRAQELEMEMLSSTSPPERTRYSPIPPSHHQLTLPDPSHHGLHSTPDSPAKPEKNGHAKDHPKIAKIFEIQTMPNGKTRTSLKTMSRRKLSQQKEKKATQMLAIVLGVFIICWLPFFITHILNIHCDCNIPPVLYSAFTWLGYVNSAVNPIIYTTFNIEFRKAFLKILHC

Sequence of dopamine D3 receptor (P35462 whole entry, species assumed): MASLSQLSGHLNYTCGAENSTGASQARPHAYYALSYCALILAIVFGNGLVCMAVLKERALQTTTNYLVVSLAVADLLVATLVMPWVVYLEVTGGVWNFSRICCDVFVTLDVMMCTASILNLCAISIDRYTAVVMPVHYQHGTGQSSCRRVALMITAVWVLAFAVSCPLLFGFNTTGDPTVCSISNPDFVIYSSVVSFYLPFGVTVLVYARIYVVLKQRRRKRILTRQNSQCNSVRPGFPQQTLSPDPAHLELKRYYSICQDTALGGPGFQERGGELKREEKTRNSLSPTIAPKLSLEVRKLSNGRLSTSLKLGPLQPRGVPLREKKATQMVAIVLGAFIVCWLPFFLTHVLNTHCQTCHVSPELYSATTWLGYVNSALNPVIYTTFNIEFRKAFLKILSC

SMILES | number of spontaneous and auditory-evoked myoclonic jerks [1] | akinesia [2] | distance travelled and time active [2] | severity of dystonic symptoms (score) [3] | affinity to the dopamine D3 receptor (dopamine D3 receptor) | muscle tone enhanced by haloperidol (resistance to passive flexion and extension of the hind limb) [4] | voluntary and involuntary motor performance (AIMS, UHDRS, video) [5] | D2 antagonism (dopamine D2 receptor)
Fc1ccc(-c2cncc(CNCC3CCc4ccccc4O3)c2)cc1 (racemic) [(R/S)-(−/+)-2-[5-(4-fluorophenyl)-3-pyridylmethylaminomethyl]-chromane] | dose-dependently reduce the number of spontaneous and auditory-evoked myoclonic jerks | dose-dependently reduced akinesia | restored distance travelled and time active to about the level of normal animals | dose-dependently reduce the severity of dystonic symptoms | high affinity | decrease the mucle tone enhanced by haloperidol | significant improvement | exhibit a D2 antagonism
Fc1ccc(-c2cncc(CNC[C@@H]3CCc4ccccc4O3)c2)cc1 [(S)-(+)-2-[5-(4-fluorophenyl)-3-pyridylmethylaminomethyl]-chromane] | dose-dependently reduce the number of spontaneous and auditory-evoked myoclonic jerks | dose-dependently reduced akinesia | restored distance travelled and time active to about the level of normal animals | dose-dependently reduce the severity of dystonic symptoms | high affinity | decrease the mucle tone enhanced by haloperidol | significant improvement | exhibit a D2 antagonism
